Results published in patent US12150995B2, “IRAK degraders and uses thereof” (Kymera Therapeutics, Inc., priority 2020, dated 2024).

Biological target: T1, IRAK4 (Homo sapiens, UniProt Q9NWZ3)
T1 construct: endogenous in cells; host or cells: OCI-LY10
T1 sequence (Q9NWZ3 1-460): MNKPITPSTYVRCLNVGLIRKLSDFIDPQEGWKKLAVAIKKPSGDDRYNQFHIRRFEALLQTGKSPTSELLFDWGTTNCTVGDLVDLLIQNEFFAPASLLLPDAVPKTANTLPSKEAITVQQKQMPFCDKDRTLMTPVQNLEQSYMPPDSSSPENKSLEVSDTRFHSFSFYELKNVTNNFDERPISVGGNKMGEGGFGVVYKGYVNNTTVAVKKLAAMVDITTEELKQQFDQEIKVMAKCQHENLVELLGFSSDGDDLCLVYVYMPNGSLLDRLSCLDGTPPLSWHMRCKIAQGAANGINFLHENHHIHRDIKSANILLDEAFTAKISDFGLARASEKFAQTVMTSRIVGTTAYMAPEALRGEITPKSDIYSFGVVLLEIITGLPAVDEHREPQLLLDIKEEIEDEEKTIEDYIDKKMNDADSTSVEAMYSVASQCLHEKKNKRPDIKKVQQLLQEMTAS
Test: IRAK4 MSD Degradation in OCI-LY10
Assay type: cell-based
Conditions: OCI-LY10 cells, Meso Scale Discovery, incubated 4 to 24 hours
Method in brief: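 IRAK4 degradation was quantified by Meso Scale electrochemiluminescence (anti-IRAK4 capture and detection antibodies) in lysates of treated OCI-LY10 cells. Compounds were dosed at 8 concentrations (1:3 dilutions, top 1 to 10 μM) for 4 to 24 h; DC50 derived by three-parameter logistic fitting.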

DC50	Compound
0.01 to 0.05 µM	COc1cc2nn([C@H]3CC[C@H](CN4CCC(c5c(OC)ccc6c5n(C)c(=O)n6C5CCC(=O)NC5=O)CC4)CC3)cc2cc1NC(=O)c1cncc(C#N)c1 (stereo partly drawn) [I-195]
< 0.01 µM	COc1cc2nn([C@H]3CC[C@H](CN4CCC(c5cccc6c5n(C)c(=O)n6C5CCC(=O)NC5=O)CC4)CC3)cc2cc1NC(=O)c1cncc(Cl)c1 (stereo partly drawn) [I-196]
< 0.01 µM	CC(C)Nc1cc(-n2ccc3cc(C#N)cnc32)ncc1-c1cn([C@H]2CC[C@H](CN3CCN(c4cccc5c(N6CCC(=O)NC6=O)cncc45)CC3)CC2)nn1 [I-197]
< 0.01 µM	CC(C)Nc1cc(-c2ccc3cc(C#N)cnn23)ncc1C(=O)N[C@H]1CC[C@H](CN2CCC(c3ccc4c(N5CCC(=O)NC5=O)cncc4c3)CC2)CC1 [I-198]
0.01 to 0.05 µM	CC(C)Nc1cc(-c2ccc3cc(C#N)cnn23)ncc1C(=O)N[C@H]1CC[C@H](CN2CCC(OCC#Cc3cccc4c3n(C)c(=O)n4C3CCC(=O)NC3=O)CC2)CC1 (stereo partly drawn) [I-199]
< 0.01 µM	COc1ccc2c(c1C1CCN(C[C@H]3CC[C@H](n4cc5cc(NC(=O)c6cccc(C#N)n6)ccc5n4)CC3)CC1)n(C)c(=O)n2C1CCC(=O)NC1=O (stereo partly drawn) [I-200]
> 0.2 µM	O=C1CCN(c2cncc3c(C4CCN(C[C@H]5CC[C@H](c6nc7ccc(NC(=O)c8cccc(C(F)(F)F)n8)cc7s6)CC5)CC4)cccc23)C(=O)N1 [I-201]
> 0.2 µM	Cc1c(C2CCN(C[C@H]3CC[C@H](n4cc5cc(NC(=O)c6cccc(C(F)(F)F)n6)ccc5n4)CC3)CC2)ccc2c1n(C)c(=O)n2C1CCC(=O)NC1=O (stereo partly drawn) [I-202]
0.01 to 0.05 µM	N#Cc1cnc2c(C(=O)Nc3ccc4nn([C@H]5CC[C@H](CN6CCC(c7cccc8c(N9CCC(=O)NC9=O)cncc78)CC6)CC5)cc4c3)cnn2c1 [I-204, 6-Cyano-N-[2-[4-[[4-[4-(2,4-dioxohexahydropyrimidin-1-yl)-8-isoquinolyl]-1-piperidyl]methyl]cyclohexyl]indazol-5-yl]pyrazolo[1,5-a]pyrimidine-3-carboxamide]
< 0.01 µM	COc1ccc2c(c1C1CCN(C[C@H]3CC[C@H](n4cc5cc(NC(=O)c6cccc(C(F)(F)F)n6)c(C#N)cc5n4)CC3)CC1)n(C)c(=O)n2C1CCC(=O)NC1=O (stereo partly drawn) [I-205]
< 0.01 µM	COc1cc2nn([C@H]3CC[C@H](CN4CC5(CCN(c6cccc7c6n(C)c(=O)n7C6CCC(=O)NC6=O)CC5)C4)CC3)cc2cc1NC(=O)c1cncc(C#N)c1 (stereo partly drawn) [I-206]
< 0.01 µM	COc1cc2nn([C@H]3CC[C@H](CN4CCC5(CC4)CCN(c4cccc6c4n(C)c(=O)n6C4CCC(=O)NC4=O)CC5)CC3)cc2cc1NC(=O)c1cncc(C#N)c1 (stereo partly drawn) [I-207]
< 0.01 µM	COc1cc2nn([C@H]3CC[C@H](CN4CCN(c5ccc6c(N7CCC(=O)NC7=O)cncc6c5)CC4)CC3)cc2cc1NC(=O)c1cccc(C(F)(F)F)n1 [I-208]
< 0.01 µM	Cn1c(=O)n(C2CCC(=O)NC2=O)c2cccc(N3CCN(C[C@H]4CC[C@H](n5cc6cc(NC(=O)c7cccc(C(F)(F)F)n7)ccc6n5)CC4)CC3)c21 (stereo partly drawn) [I-209]
> 0.2 µM	Cc1c(C2CCN(C[C@H]3CC[C@H](n4cc5cc(NC(=O)c6cccc(C(F)(F)F)n6)ncc5n4)CC3)CC2)ccc2c1n(C)c(=O)n2C1CCC(=O)NC1=O (stereo partly drawn) [I-210]
< 0.01 µM	COc1cc2nn([C@H]3CC[C@H](CN4CCN(c5cccc6c(N7CCC(=O)NC7=O)cncc56)CC4)CC3)cc2cc1NC(=O)c1cccc(C(F)(F)F)n1 [I-211]
> 0.2 µM	Cn1c(=O)n(C2CCC(=O)NC2=O)c2cccc(C3CCN(C[C@H]4CC[C@H](n5cc6cc(NC(=O)c7cncc(C#N)c7)c(N7C[C@H]8C[C@@H]7CO8)cc6n5)CC4)CC3)c21 (stereo partly drawn) [I-212]
< 0.01 µM	N#Cc1cc2nn([C@H]3CC[C@H](CN4CCC(c5cccc6c(N7CCC(=O)NC7=O)cncc56)CC4)CC3)cc2cc1NC(=O)c1cccc(C(F)(F)F)n1 [I-213]

DC50	Compound
< 0.01 µM	Cn1c(=O)n(C2CCC(=O)NC2=O)c2cccc(C3CCN(C[C@H]4CC[C@H](n5cc6cc(NC(=O)c7cccc(C(F)(F)F)c7F)ccc6n5)CC4)CC3)c21 (stereo partly drawn) [I-214]
< 0.01 µM	Cn1c(=O)n(C2CCC(=O)NC2=O)c2cccc(C3CCN(C[C@H]4CC[C@H](n5cc6cc(NC(=O)c7nc(C(F)(F)F)cs7)ccc6n5)CC4)CC3)c21 (stereo partly drawn) [I-215]
< 0.01 µM	COc1cc2nn([C@H]3CC[C@H](CN4CCN(c5cccc6c5n(C)c(=O)n6C5CCC(=O)NC5=O)CC4)CC3)cc2cc1NC(=O)c1cccc(C(F)(F)F)c1F (stereo partly drawn) [I-216]
> 0.2 µM	CN(C[C@H]1CC[C@H](n2cc3cc(NC(=O)c4cncc(C#N)c4)c(N4C[C@H]5C[C@@H]4CO5)cc3n2)CC1)C1CCN(c2cccc3c2n(C)c(=O)n3C2CCC(=O)NC2=O)CC1 (stereo partly drawn) [I-217]
< 0.01 µM	COc1cc(NC(=O)c2cccc(C(F)(F)F)n2)cc2cn([C@H]3CC[C@H](CN4CCN(c5cccc6c5n(C)c(=O)n6C5CCC(=O)NC5=O)CC4)CC3)nc12 (stereo partly drawn) [I-218]
< 0.01 µM	COc1cc2nn([C@H]3CC[C@H](CN4C5CCC4CN(c4cccc6c(N7CCC(=O)NC7=O)cncc46)C5)CC3)cc2cc1NC(=O)c1cccc(C(F)(F)F)n1 [I-219]
< 0.01 µM	COc1cc2nn([C@H]3CC[C@H](CN4C5CC4CN(c4cccc6c(N7CCC(=O)NC7=O)cncc46)C5)CC3)cc2cc1NC(=O)c1cccc(C(F)(F)F)n1 [I-220]
< 0.01 µM	COc1cc(NC(=O)c2cccc(C(F)(F)F)n2)cc2cn([C@H]3CC[C@H](CN4CCC(c5cccc6c(N7CCC(=O)NC7=O)cncc56)CC4)CC3)nc12 [I-221]
< 0.01 µM	COc1cc(NC(=O)c2cccc(C(F)(F)F)n2)cc2cn([C@H]3CC[C@H](CN4CCN(c5cccc6c(N7CCC(=O)NC7=O)cncc56)CC4)CC3)nc12 [I-222]
0.01 to 0.05 µM	COc1cc2nc([C@H]3CC[C@H](CN4CCN(c5cccc6c(N7CCC(=O)NC7=O)cncc56)CC4)CC3)sc2cc1NC(=O)c1cccc(C(F)(F)F)n1 [I-223]
< 0.01 µM	CC(C)(O)c1cc2nn([C@H]3CC[C@H](CN4CCN(c5cccc6c(N7CCC(=O)NC7=O)cncc56)CC4)CC3)cc2cc1NC(=O)c1cccc(C(F)(F)F)n1 [I-224]
< 0.01 µM	Cn1c(=O)n(C2CCC(=O)NC2=O)c2cccc(N3C[C@@H]4C[C@H]3CN4C[C@H]3CC[C@H](n4cc5cc(NC(=O)c6cccc(C(F)(F)F)n6)c(C(C)(C)O)cc5n4)CC3)c21 (stereo partly drawn) [I-225]
< 0.01 µM	C[C@@H]1CN(c2cccc3c2n(C)c(=O)n3C2CCC(=O)NC2=O)CCN1C[C@H]1CC[C@H](n2cc3cc(NC(=O)c4cccc(C(F)(F)F)n4)c(C(C)(C)O)cc3n2)CC1 (stereo partly drawn) [I-226]
< 0.01 µM	CC(C)(N)c1cc2nn([C@H]3CC[C@H](CN4C5CCC4CN(c4cccc6c(N7CCC(=O)NC7=O)cncc46)C5)CC3)cc2cc1NC(=O)c1cccc(C(F)(F)F)n1 [I-227]
< 0.01 µM	CC(C)(O)c1cc2nn([C@H]3CC[C@H](CN4C5CC4CN(c4cccc6c(N7CCC(=O)NC7=O)cncc46)C5)CC3)cc2cc1NC(=O)c1cccc(C(F)(F)F)n1 [I-228]
< 0.01 µM	CC(C)(O)c1cc2nn([C@H]3CC[C@H](CN4C[C@H]5C[C@@H]4CN5c4cccc5c(N6CCC(=O)NC6=O)cncc45)CC3)cc2cc1NC(=O)c1cccc(C(F)(F)F)n1 [I-229]
< 0.01 µM	C[C@@H]1CN(c2cccc3c(N4CCC(=O)NC4=O)cncc23)CCN1C[C@H]1CC[C@H](n2cc3cc(NC(=O)c4cccc(C(F)(F)F)n4)c(C(C)(C)O)cc3n2)CC1 [I-230]
0.01 to 0.05 µM	CC(C)Nc1cc(-n2ccc3cc(C#N)cnc32)ncc1-c1cn([C@H]2CC[C@H](CN3CCN(c4cccc5c4n(C)c(=O)n5C4CCC(=O)NC4=O)CC3)CC2)nn1 (stereo partly drawn) [I-231]
